{"source": "patent US20080241274A1", "about": "(ZIOPHARM Oncology, Inc., priority 2006, published 2008)", "key": {"[1]": {"system": "DMBA induced mammary carcinoma", "test": "DMBA induced mammary carcinoma in rats", "type": "in vivo, Rat", "details": "46.4 mg/kg/d, 2×(3× week), at sacrifice of control group animals", "description": "(§1) The significant differences in pharmacodynamics and safety profile of indibulin make it a strong candidate for development as an anti-cancer drug."}, "[2]": {"system": "murine renal cell carcinoma RENCA", "test": "Murine renal cell carcinoma RENCA model", "type": "in vivo, Mouse", "experimental": "1.5×10^6 RENCA cells were injected into the subcapsular space of the kidney through a flank incision (Day 1). […] On Day 21 mice were sacrificed and weight and volume of primary tumors, weight and number of metastases of the lung and metastasis formation in the abdominal lymph nodes determined. […] TNP-470 has shown anti-tumor activity in different animal models and is well established for its use in RENCA.\nas §1"}, "[3]": {"system": "series of cancer models (RENCA, DMBA, SK-OV-3, PC-3, A431, U 87, MCF-7, A 549)", "test": "Series of cancer models in animals (overall statement)", "type": "in vivo", "description": "as §1"}}}
{"compound": "O=C(Nc1ccncc1)C(=O)c1cn(Cc2ccc(Cl)cc2)c2ccccc12", "note": "[Indibulin, N-(pyridin-4-yl)-[1-(4-chlorobenzyl)-indol-3-yl]-glyoxylic acid amide]", "values": [{"measurement": "Growth Inhibition (%)", "setting": "[1]", "value": 99.5, "unit": "%"}, {"measurement": "Growth Inhibition (%)", "setting": "[2]; RENCA, 17.5 mg/kg/d, d. 1-20(5× week), at sacrifice of control group animals", "value": 90, "unit": "%"}, {"measurement": "Number of lung metastases", "setting": "[2]; oral, daily Day 1-20 (5×/week), Day 21", "value": "trend in reduction of number of lung metastases but was not statistically significant"}, {"measurement": "Reduction in tumor volume and weight", "setting": "[2]; oral, daily Day 1-20 (5×/week), primary tumors on Day 21, FIG. 12", "value": "statistically significant"}, {"measurement": "Anti-tumor activity in all models", "setting": "[3]; all models tested", "value": "strong and statistically significant anti-tumor activity"}, {"measurement": "Neurotoxicity or loss of body weight", "setting": "[3]; animals at efficacious doses", "value": "no signs of neurotoxicity or loss of body weight"}]}
